Experimental data: patent publication US9688699B2, “3-(pyrimidine-2-yl)imidazo[1,2-a]pyridines” (Bayer Pharma Aktiengesellschaft, priority 2014, dated 2017)
Where a name gives a salt, the structure may show the parent alone.

Columns and labels:
[1] = biological target: T1, human phosphodiesterase 5 (PDE 5) (Homo sapiens, UniProt O76074); experiment: Inhibition of human phosphodiesterase 5 (PDE 5) (B-3); assay type: biochemical; settings: PDE 5 preparation from human platelets; [8-3H] cGMP substrate, SPA; in some cases means of individual determinations
T1 construct: PDE 5 preparations are obtained from human platelets by disruption; from tissue; host or cells: human platelets (Mono Q ion exchange fractions with PDE 5 activity)
Method: B-3. Inhibition of Human Phosphodiesterase 5 (PDE 5)
PDE 5 preparations are obtained from human platelets by disruption (Microfluidizer®, 800 bar, 3 passes), followed by centrifugation (75 000 g, 60 min, 4° C.) and ion exchange chromatography of the supernatant on a Mono Q 10/10 column (linear sodium chloride gradient, elution with a 0.2-0.3M solution of sodium chloride in buffer (20 mM Hepes pH 7.2, 2 mM magnesium chloride). Fractions having PDE 5 activity are combined (PDE 5 preparation) and stored at −80° C.
To determine their in vitro action on human PDE 5, the test substances are dissolved in 100% DMSO and serially diluted. Typically, dilution series (1:3) from 200 μM to 0.091 μM are prepared (resulting final concentrations in the test: 4 μM to 0.0018 μM). In each case 2 μl of the diluted substance solutions are placed into the wells of microtitre plates (Isoplate-96/200 W; Perkin Elmer). Subsequently, 50 μl of a dilution of the above-described PDE 5 preparation are added. The dilution of the PDE 5 preparation is chosen such that during the later incubation less than 70% of the substrate are converted (typical dilution: 1:100; dilution buffer: 50 mM tris/hydrochloric acid pH 7.5, 8.3 mM magnesium chloride, 1.7 mM EDTA, 0.2% BSA). The substrate, [8-^3H] cyclic guanosine-3′,5′-monophosphate (1 μCi/μl; Perkin Elmer), is diluted 1:2000 with assay buffer (50 mM tris/hydrochloric acid pH 7.5, 8.3 mM magnesium chloride, 1.7 mM EDTA) to a concentration of 0.0005 μCi/μl. By addition of 50 μl (0.025 μCi) of the diluted substrate, the enzyme reaction is finally started. The test mixtures are incubated at room temperature for 60 min and the reaction is stopped by adding 25 μl of a suspension of 18 mg/ml yttrium scintillation proximity beads in water (phosphodiesterase beads for SPA assays, RPNQ 0150, Perkin Elmer). The microtitre plates are sealed with a film and left to stand at room temperature for 60 min. Subsequently, the plates are analysed for 30 s per well in a Microbeta scintillation counter (Perkin Elmer). IC50 values are determined using the graphic plot of the substance concentration against percentage PDE 5 inhibition.

[2] = biological target: T2, recombinant guanylate cyclase reporter cell line (Rattus norvegicus, UniProt P19686+P20595); experiment: Effect on a recombinant guanylate cyclase reporter cell line (B-2); assay type: cell-based; settings: MEC = minimum effective concentration, in some cases mean values for individual determinations
T2 construct: expressed in transfected cells
T2 sequence (P19686 1-690): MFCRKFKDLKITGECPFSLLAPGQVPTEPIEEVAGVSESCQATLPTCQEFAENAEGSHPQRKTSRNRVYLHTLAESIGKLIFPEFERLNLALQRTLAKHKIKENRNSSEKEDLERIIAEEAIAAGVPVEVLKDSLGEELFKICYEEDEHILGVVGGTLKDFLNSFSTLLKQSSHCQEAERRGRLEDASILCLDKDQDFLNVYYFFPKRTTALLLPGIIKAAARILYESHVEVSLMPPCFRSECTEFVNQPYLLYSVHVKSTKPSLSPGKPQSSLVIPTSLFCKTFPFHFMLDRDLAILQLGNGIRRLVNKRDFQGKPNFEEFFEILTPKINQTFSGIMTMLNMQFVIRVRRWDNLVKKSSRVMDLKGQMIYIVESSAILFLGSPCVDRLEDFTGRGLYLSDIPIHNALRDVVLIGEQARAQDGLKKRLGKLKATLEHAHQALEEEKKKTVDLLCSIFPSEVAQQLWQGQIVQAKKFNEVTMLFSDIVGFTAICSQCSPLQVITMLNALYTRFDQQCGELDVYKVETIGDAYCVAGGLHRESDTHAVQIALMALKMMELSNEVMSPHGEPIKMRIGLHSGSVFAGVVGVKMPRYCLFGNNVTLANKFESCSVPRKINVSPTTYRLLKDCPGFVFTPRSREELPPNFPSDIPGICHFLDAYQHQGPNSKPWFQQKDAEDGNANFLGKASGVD
T2 sequence (P20595 1-619): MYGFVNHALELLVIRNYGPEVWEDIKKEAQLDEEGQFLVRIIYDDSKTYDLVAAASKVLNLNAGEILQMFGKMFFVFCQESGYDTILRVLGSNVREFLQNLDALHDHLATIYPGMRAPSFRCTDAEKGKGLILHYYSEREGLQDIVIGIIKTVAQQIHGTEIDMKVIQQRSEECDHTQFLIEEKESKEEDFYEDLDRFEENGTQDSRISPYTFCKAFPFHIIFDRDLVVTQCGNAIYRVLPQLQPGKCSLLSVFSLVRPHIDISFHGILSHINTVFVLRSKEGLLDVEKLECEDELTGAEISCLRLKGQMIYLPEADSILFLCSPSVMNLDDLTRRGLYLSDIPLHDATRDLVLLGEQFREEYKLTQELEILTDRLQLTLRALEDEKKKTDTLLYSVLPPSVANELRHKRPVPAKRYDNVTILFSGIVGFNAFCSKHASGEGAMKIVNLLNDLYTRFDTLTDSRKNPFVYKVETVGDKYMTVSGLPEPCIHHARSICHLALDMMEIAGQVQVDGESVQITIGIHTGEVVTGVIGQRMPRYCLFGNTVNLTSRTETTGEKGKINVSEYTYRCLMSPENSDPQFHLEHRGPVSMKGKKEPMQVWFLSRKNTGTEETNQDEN
Method: B-2. Effect on a Recombinant Guanylate Cyclase Reporter Cell Line
The cellular activity of the compounds according to the invention is determined using a recombinant guanylate cyclase reporter cell line, as described in F. Wunder et al., Anal. Biochem. 339, 104-112 (2005).
Representative MEC values (MEC=minimum effective concentration) for the compounds of the invention are shown in Table 1 below (in some cases as mean values for individual determinations): […]

SMILES | IC50 [1] | MEC [2]
Cc1nc2c(OCc3c(F)cccc3F)cccn2c1-c1nc(NCC(O)C(F)(F)F)c2c(n1)NC(=O)C2(C)C (racemic) [Example 18, rac-2-{8-[(2,6-difluorobenzyl)oxy]-2-methylimidazo[1,2-a]pyridin-3-yl}-5,5-dimethyl-4-[(3,3,3-trifluoro-2-hydroxypropyl)amino]-5,7-dihydro-6H-pyrrolo[2,3-d]pyrimidin-6-one] | 19 nM | 1 µM
COCC(C)(N)CNc1nc(-c2c(C)nc3c(OCc4c(F)cccc4F)cccn23)nc2c1C(C)(C)C(=O)N2 (single isomer, unassigned; ent-4) [Example 45, ent-4-[(2-Amino-3-methoxy-2-methylpropyl)amino]-2-{8-[(2,6-difluorobenzyl)oxy]-2-methylimidazo[1,2-a]pyridin-3-yl}-5,5-dimethyl-5,7-dihydro-6H-pyrrolo[2,3-d]pyrimidin-6-one (Enantiomer A)] | 9.8 nM | 1 µM
Cc1nc2c(OCc3c(F)ccc(F)c3F)cccn2c1-c1nc(N)c2c(n1)NC(=O)C2(C)C [Example 9, 4-Amino-5,5-dimethyl-2-{2-methyl-8-[(2,3,6-trifluorobenzyl)oxy]imidazo[1,2-a]pyridin-3-yl}-5,7-dihydro-6H-pyrrolo[2,3-d]pyrimidin-6-one] | 17 nM | 1 µM
Cc1nc2c(OCc3c(F)cccc3F)cccn2c1-c1nc(NC[C@@H](O)CO)c2c(n1)NC(=O)C2(C)C [Example 23, 2-{8-[(2,6-difluorobenzyl)oxy]-2-methylimidazo[1,2-a]pyridin-3-yl}-4-{[(2R)-2,3-dihydroxypropyl]amino}-5,5-dimethyl-5,7-dihydro-6H-pyrrolo[2,3-d]pyrimidin-6-one] | 8 nM | 3 µM
Cc1nc2c(OCc3c(F)ccc(F)c3F)cccn2c1-c1nc2c(c(C(=O)NCC(C)(C)N)n1)C(C)(C)C(=O)N2 [Example 58, N-(2-amino-2-methylpropyl)-5,5-dimethyl-2-{2-methyl-8-[(2,3,6-trifluorobenzyl)oxy]imidazo[1,2-a]pyridin-3-yl}-6-oxo-6,7-dihydro-5H-pyrrolo[2,3-d]pyrimidin-4-carboxamide trifluoroacetate] | 5.2 nM | 3 µM
Cc1nc2c(OCc3c(F)ccc(F)c3F)cccn2c1-c1nc2c(c(C(=O)N3CCC(CO)C3)n1)C(C)(C)C(=O)N2 (racemic) [Example 63, rac-4-{[3-(hydroxymethyl)pyrrolidin-1-yl]carbonyl}-5,5-dimethyl-2-{2-methyl-8-[(2,3,6-trifluorobenzyl)oxy]imidazo[1,2-a]pyridin-3-yl}-5,7-dihydro-6H-pyrrolo[2,3-d]pyrimidin-6-one] | 220 nM | 3 µM
Cc1nc2c(OCc3c(F)cccc3F)cccn2c1-c1nc2c(c(N3CCC[C@@H]3CO)n1)C(C)(C)C(=O)N2 [Example 37, 2-{8-[(2,6-difluorobenzyl)oxy]-2-methylimidazo[1,2-a]pyridin-3-yl}-4-[(2R)-2-(hydroxymethyl)pyrrolidin-1-yl]-5,5-dimethyl-5,7-dihydro-6H-pyrrolo[2,3-d]pyrimidin-6-one] | 21 nM | 1 µM
Cc1nc2c(OCc3c(F)cccc3F)cccn2c1-c1nc(I)c2c(n1)NC(=O)C2(C)C [Example 2, 2-{8-[(2,6-Difluorobenzyl)oxy]-2-methylimidazo[1,2-a]pyridin-3-yl}-4-iodo-5,5-dimethyl-5,7-dihydro-6H-pyrrolo[2,3-d]pyrimidin-6-one] | 300 nM | 5.3 µM
Cc1nc2c(OCc3c(F)cccc3F)cccn2c1-c1nc2c(c(C(N)=O)n1)C(C)(C)C(=O)N2 [Example 50, 2-{8-[(2,6-Difluorobenzyl)oxy]-2-methylimidazo[1,2-a]pyridin-3-yl}-5,5-dimethyl-6-oxo-6,7-dihydro-5H-pyrrolo[2,3-d]pyrimidine-4-carboxamide hydrochloride] | 29 nM | 0.3 µM
Cc1nc2c(OCc3c(F)cccc3F)cccn2c1-c1nc(CN)c2c(n1)NC(=O)C2(C)C [Example 49, 4-(Aminomethyl)-2-{8-[(2,6-difluorobenzyl)oxy]-2-methylimidazo[1,2-a]pyridin-3-yl}-5,5-dimethyl-5,7-dihydro-6H-pyrrolo[2,3-d]pyrimidin-6-one] | 48 nM | 1 µM
Cc1nc2c(OCc3c(F)cccc3F)cccn2c1-c1nc(NCC(C)(C)N)c2c(n1)NC(=O)C2(C)C [Example 12, 4-[(2-Amino-2-methylpropyl)amino]-2-{8-[(2,6-difluorobenzyl)oxy]-2-methylimidazo[1,2-a]pyridin-3-yl}-5,5-dimethyl-5,7-dihydro-6H-pyrrolo[2,3-d]pyrimidin-6-one] | 3.6 nM | 0.2 µM
Cc1nc2c(OCc3c(F)ccc(F)c3F)cccn2c1-c1nc2c(c(C(=O)N3CCNCC3)n1)C(C)(C)C(=O)N2 [Example 64, 5,5-dimethyl-2-{2-methyl-8-[(2,3,6-trifluorobenzyl)oxy]imidazo[1,2-a]pyridin-3-yl}-4-(piperazin-1-ylcarbonyl)-5,7-dihydro-6H-pyrrolo[2,3-d]pyrimidin-6-one trifluoroacetate] | 28 nM | 10 µM
CCCC(C)(N)CNc1nc(-c2c(C)nc3c(OCc4c(F)cccc4F)cccn23)nc2c1C(C)(C)C(=O)N2 (racemic) [Example 13, rac-4-[(2-Amino-2-methylpentyl)amino]-2-{8-[(2,6-difluorobenzyl)oxy]-2-methylimidazo[1,2-a]pyridin-3-yl}-5,5-dimethyl-5,7-dihydro-6H-pyrrolo[2,3-d]pyrimidin-6-one (racemate)] | 12 nM | 1 µM
Cc1cc(OCc2c(F)cccc2F)c2nc(C)c(-c3nnc4c(n3)NC(=O)C4(C)C)n2c1 [Example 69, 3-{8-[(2,6-Difluorobenzyl)oxy]-2,6-dimethylimidazo[1,2-a]pyridin-3-yl}-7,7-dimethyl-5,7-dihydro-6H-pyrrolo[2,3-e][1,2,4]triazin-6-one] | 790 nM | 1 µM
